Key:
Experiment in all cases: fitness (endpoint OD595 vs no drug) (fraction); higher = more growth
[1] = tested on: B. subtilis 168
Outline: (§1)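 Fitness was defined as the optical density at the transition into stationary phase relative to the robust mean of no-drug control wells. Values were capped at 1. Cultures were started at OD595 0.01 in 384-well plates (30 µl, or 55 µl for S. pneumoniae) in TSB, LB Lennox or CY at 37 °C. OD595 was recorded every 30 min over 14 h, with the first reading subtracted as background.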

[2] = tested on: S. aureus Newman
Outline: as §1

[3] = tested on: S. pneumoniae D39V
Outline: as §1

[4] = tested on: S. aureus DSM 20231
Outline: as §1

[5] = first compound 0.125 µg/mL, partner 0.125 µg/mL
[6] = first compound 0.125 µg/mL, partner 0.25 µg/mL
[7] = first compound 0.125 µg/mL, partner 0.5 µg/mL
[8] = first compound 0.25 µg/mL, partner 0.125 µg/mL
[9] = first compound 0.25 µg/mL, partner 0.25 µg/mL
[10] = first compound 0.25 µg/mL, partner 0.5 µg/mL
[11] = first compound 0.5 µg/mL, partner 0.125 µg/mL
[12] = first compound 0.5 µg/mL, partner 0.25 µg/mL
[13] = first compound 0.5 µg/mL, partner 0.5 µg/mL
[14] = first compound 1 µg/mL, partner 0.25 µg/mL, one replicate
[15] = first compound 1 µg/mL, partner 0.5 µg/mL, one replicate
[16] = first compound 0.5 µg/mL, partner 0.0156 µg/mL
[17] = first compound 0.5 µg/mL, partner 0.0312 µg/mL
[18] = first compound 0.5 µg/mL, partner 0.0625 µg/mL

CCCCCCCCCC(=O)N[C@@H](Cc1c[nH]c2ccccc12)C(=O)N[C@H](CC(N)=O)C(=O)N[C@@H](CC(=O)O)C(=O)N[C@@H]1C(=O)NCC(=O)N[C@@H](CCCN)C(=O)N[C@@H](CC(=O)O)C(=O)N[C@H](C)C(=O)N[C@@H](CC(=O)O)C(=O)NCC(=O)N[C@H](CO)C(=O)N[C@@H]([C@H](C)CC(=O)O)C(=O)N[C@@H](CC(=O)c2ccccc2N)C(=O)O[C@@H]1C [Daptomycin] + CC1=C(C(=O)O)N2C(=O)[C@@H](NC(=O)[C@H](N)c3ccccc3)[C@H]2SC1 [Cephalexin]
fitness [1, 5]: 0.897 | fitness [1, 6]: 0.888 | fitness [1, 7]: 0.879 | fitness [1, 8]: 0.879 | fitness [1, 9]: 0.892 | fitness [1, 10]: 0.957 | fitness ([1]; first compound 0.25 µg/mL, partner 1 µg/mL, one replicate): 0.956 | fitness [1, 11]: 0.872 | fitness [1, 12]: 0.879 | fitness [1, 13]: 0.835 | fitness ([1]; first compound 0.5 µg/mL, partner 1 µg/mL, one replicate): 0.92 | fitness [1, 14]: 0.763 | fitness [1, 15]: 0.741 | fitness ([1]; first compound 1 µg/mL, partner 1 µg/mL, one replicate): 0.766 | fitness [2, 6]: 0.956 | fitness [2, 7]: 0.992 | fitness ([2]; first compound 0.125 µg/mL, partner 1 µg/mL): 0.991 | fitness [2, 9]: 0.962 | fitness [2, 10]: ≥ 1 | fitness ([2]; first compound 0.25 µg/mL, partner 1 µg/mL): ≥ 1 | fitness [2, 12]: 0.984 | fitness [2, 13]: 0.996 | fitness ([2]; first compound 0.5 µg/mL, partner 1 µg/mL): ≥ 1 | fitness ([3]; first compound 1 µg/mL, partner 0.125 µg/mL, one replicate): 0.903 | fitness [3, 14]: 0.898 | fitness [3, 15]: 0.896 | fitness ([3]; first compound 1 µg/mL, partner 1 µg/mL): 0.452 | fitness ([3]; first compound 1 µg/mL, partner 2 µg/mL): 0.065 | fitness ([3]; first compound 1 µg/mL, partner 4 µg/mL): 0.0361 | fitness ([3]; first compound 2 µg/mL, partner 0.125 µg/mL, one replicate): 0.922 | fitness ([3]; first compound 2 µg/mL, partner 0.25 µg/mL, one replicate): 0.857 | fitness ([3]; first compound 2 µg/mL, partner 0.5 µg/mL, one replicate): 0.891 | fitness ([3]; first compound 2 µg/mL, partner 1 µg/mL): 0.479 | fitness ([3]; first compound 2 µg/mL, partner 2 µg/mL): 0.0675 | fitness ([3]; first compound 2 µg/mL, partner 4 µg/mL): 0.0644 | fitness ([3]; first compound 4 µg/mL, partner 0.125 µg/mL, one replicate): 0.977 | fitness ([3]; first compound 4 µg/mL, partner 0.25 µg/mL, one replicate): 0.878 | fitness ([3]; first compound 4 µg/mL, partner 0.5 µg/mL, one replicate): 0.887 | fitness ([3]; first compound 4 µg/mL, partner 1 µg/mL): 0.449 | fitness ([3]; first compound 4 µg/mL, partner 2 µg/mL): 0.0521 | fitness ([3]; first compound 4 µg/mL, partner 4 µg/mL): 0.0719

CCCCCCCCCC(=O)N[C@@H](Cc1c[nH]c2ccccc12)C(=O)N[C@H](CC(N)=O)C(=O)N[C@@H](CC(=O)O)C(=O)N[C@@H]1C(=O)NCC(=O)N[C@@H](CCCN)C(=O)N[C@@H](CC(=O)O)C(=O)N[C@H](C)C(=O)N[C@@H](CC(=O)O)C(=O)NCC(=O)N[C@H](CO)C(=O)N[C@@H]([C@H](C)CC(=O)O)C(=O)N[C@@H](CC(=O)c2ccccc2N)C(=O)O[C@@H]1C [Daptomycin] + CO/N=C(\C(=O)N[C@@H]1C(=O)N2C(C(=O)[O-])=C(C[N+]3(C)CCCC3)CS[C@H]12)c1csc(N)n1 [Cefepime]
fitness [4, 11]: 0.846 | fitness [4, 12]: 0.88 | fitness [4, 13]: 0.869 | fitness ([4]; first compound 1 µg/mL, partner 0.125 µg/mL): 0.938 | fitness ([4]; first compound 1 µg/mL, partner 0.25 µg/mL): 0.89 | fitness ([4]; first compound 1 µg/mL, partner 0.5 µg/mL): 0.877 | fitness ([4]; first compound 2 µg/mL, partner 0.125 µg/mL): 0.934 | fitness ([4]; first compound 2 µg/mL, partner 0.25 µg/mL): 0.887 | fitness ([4]; first compound 2 µg/mL, partner 0.5 µg/mL): 0.844 | fitness [2, 5]: 0.935 | fitness [2, 6]: 0.854 | fitness [2, 7]: 0.8 | fitness [2, 8]: 0.941 | fitness [2, 9]: 0.874 | fitness [2, 10]: 0.797 | fitness [2, 11]: 0.967 | fitness [2, 12]: 0.874 | fitness [2, 13]: 0.799 | fitness ([3]; first compound 1 µg/mL, partner 0.007 µg/mL): 0.917 | fitness ([3]; first compound 1 µg/mL, partner 0.0078 µg/mL): ≥ 1 | fitness ([3]; first compound 1 µg/mL, partner 0.014 µg/mL): 0.887 | fitness ([3]; first compound 1 µg/mL, partner 0.0155 µg/mL): 0.982 | fitness ([3]; first compound 1 µg/mL, partner 0.028 µg/mL): 0.813 | fitness ([3]; first compound 1 µg/mL, partner 0.031 µg/mL): 0.584 | fitness ([3]; first compound 2 µg/mL, partner 0.007 µg/mL): 0.942 | fitness ([3]; first compound 2 µg/mL, partner 0.0078 µg/mL): ≥ 1 | fitness ([3]; first compound 2 µg/mL, partner 0.014 µg/mL): 0.938 | fitness ([3]; first compound 2 µg/mL, partner 0.0155 µg/mL): ≥ 1 | fitness ([3]; first compound 2 µg/mL, partner 0.028 µg/mL): 0.82 | fitness ([3]; first compound 2 µg/mL, partner 0.031 µg/mL): 0.606 | fitness ([3]; first compound 4 µg/mL, partner 0.007 µg/mL): 0.476 | fitness ([3]; first compound 4 µg/mL, partner 0.0078 µg/mL): 0.964 | fitness ([3]; first compound 4 µg/mL, partner 0.014 µg/mL): 0.57 | fitness ([3]; first compound 4 µg/mL, partner 0.0155 µg/mL): 0.965 | fitness ([3]; first compound 4 µg/mL, partner 0.028 µg/mL): 0.48 | fitness ([3]; first compound 4 µg/mL, partner 0.031 µg/mL): 0.599

CCCCCCCCCC(=O)N[C@@H](Cc1c[nH]c2ccccc12)C(=O)N[C@H](CC(N)=O)C(=O)N[C@@H](CC(=O)O)C(=O)N[C@@H]1C(=O)NCC(=O)N[C@@H](CCCN)C(=O)N[C@@H](CC(=O)O)C(=O)N[C@H](C)C(=O)N[C@@H](CC(=O)O)C(=O)NCC(=O)N[C@H](CO)C(=O)N[C@@H]([C@H](C)CC(=O)O)C(=O)N[C@@H](CC(=O)c2ccccc2N)C(=O)O[C@@H]1C [Daptomycin] + CO[C@@]12[C@H](COC(N)=O)C3=C(C(=O)C(C)=C(N)C3=O)N1C[C@@H]1N[C@@H]12 [Mitomycin C]
fitness [4, 16]: 0.773 | fitness [4, 17]: 0.791 | fitness [4, 18]: 0.648 | fitness ([4]; first compound 1 µg/mL, partner 0.0156 µg/mL): 0.809 | fitness ([4]; first compound 1 µg/mL, partner 0.0312 µg/mL): 0.778 | fitness ([4]; first compound 1 µg/mL, partner 0.0625 µg/mL): 0.6 | fitness ([4]; first compound 2 µg/mL, partner 0.0156 µg/mL): 0.769 | fitness ([4]; first compound 2 µg/mL, partner 0.0312 µg/mL): 0.744 | fitness ([4]; first compound 2 µg/mL, partner 0.0625 µg/mL): 0.595 | fitness ([2]; first compound 0.125 µg/mL, partner 0.0156 µg/mL): 0.775 | fitness ([2]; first compound 0.125 µg/mL, partner 0.0312 µg/mL): 0.702 | fitness ([2]; first compound 0.125 µg/mL, partner 0.0625 µg/mL): 0.57 | fitness ([2]; first compound 0.25 µg/mL, partner 0.0156 µg/mL): 0.778 | fitness ([2]; first compound 0.25 µg/mL, partner 0.0312 µg/mL): 0.692 | fitness ([2]; first compound 0.25 µg/mL, partner 0.0625 µg/mL): 0.54 | fitness [2, 16]: 0.773 | fitness [2, 17]: 0.688 | fitness [2, 18]: 0.545 | fitness ([3]; first compound 1 µg/mL, partner 0.001075 µg/mL): 0.897 | fitness ([3]; first compound 1 µg/mL, partner 0.002 µg/mL): 0.771 | fitness ([3]; first compound 1 µg/mL, partner 0.00215 µg/mL): 0.849 | fitness ([3]; first compound 1 µg/mL, partner 0.004 µg/mL): 0.617 | fitness ([3]; first compound 1 µg/mL, partner 0.0043 µg/mL): 0.719 | fitness ([3]; first compound 1 µg/mL, partner 0.008 µg/mL): 0.285 | fitness ([3]; first compound 2 µg/mL, partner 0.001075 µg/mL): 0.905 | fitness ([3]; first compound 2 µg/mL, partner 0.002 µg/mL): 0.776 | fitness ([3]; first compound 2 µg/mL, partner 0.00215 µg/mL): 0.841 | fitness ([3]; first compound 2 µg/mL, partner 0.004 µg/mL): 0.558 | fitness ([3]; first compound 2 µg/mL, partner 0.0043 µg/mL): 0.723 | fitness ([3]; first compound 2 µg/mL, partner 0.008 µg/mL): 0.307 | fitness ([3]; first compound 4 µg/mL, partner 0.001075 µg/mL): 0.94 | fitness ([3]; first compound 4 µg/mL, partner 0.002 µg/mL): 0.739 | fitness ([3]; first compound 4 µg/mL, partner 0.00215 µg/mL): 0.842 | fitness ([3]; first compound 4 µg/mL, partner 0.004 µg/mL): 0.504 | fitness ([3]; first compound 4 µg/mL, partner 0.0043 µg/mL): 0.723 | fitness ([3]; first compound 4 µg/mL, partner 0.008 µg/mL): 0.242
